In patent publication US7084261B2, “Pegylated T1249 polypeptide” (Hoffmann-La Roche Inc., priority 2002, dated 2006):
Values after ≈ are worked out from the molar mass of the structure shown. Read-outs that look alike come from different tables or passages of the source.

How the values were obtained:
HIV-1 = test system: HIV-1
Source text: The number of stained nuclei can thus be interpreted as equal to the number of infectious virions in the challenge inoculum if there is only one round of infection prior to staining.

[1] = Pharmacokinetics of T1249 in rats after a single subcutaneous or intravenous dose; type: in vivo; settings: both sexes, Sprague-Dawley, blood, rat; for half-life: read-out: T1/2terminal (converted)
Description: Each treatment group, consisted of 9 Sprague-Dawley rats (Charles River Laboratories, Wilmington, Del.) per sex. Each member of the group received a single subcutaneous or intravenous dose of T1249 (batch 2 referenced in Example 9/Table 5). […]
Blood samples were collected from test animals over a twelve hour time period from three rats per sex per group at each time point. The time points were 0.5, 1, 2, 4, 6, 8,10, and 12 hours after dose administration.
The blood samples were analyzed using a T1249 PcAb ECLIA assay. T1249 PcAb ECLIA is a noncompetitive, two site immunoassay that utilizes two different preparations of rabbit PcAb specific for T1249. In this assay, T1249 determinations are preformed by first incubating the diluted test sample in a tube that also contains biotin-labeled antibody (preparation A) and ruthenium-labeled antibody (preparation B). In the next step, streptavidin-coated magnetic beads are added to the tube in order to capture the antibody-peptide-antibody immune complexes (sandwiches) that have formed. The mixture is then pumped through a flow-cell in the analyzer, after which an electrical current is applied to […] adjacent to the flow-cell. Light is generated through cyclical oxidation-reduction reactions between the ruthenium metal ions that are conjugated to the detector antibodies and tripropylamine ions that are present in excess in the assay buffer. This light energy is the measured end-point. A sample containing an appreciable amount of T1249 presents a higher signal compared to a sample containing little or no T1249.

## CC[C@H](C)[C@H](NC(=O)[C@H](CCC(N)=O)NC(=O)[C@H](C)NC(=O)[C@H](CCC(N)=O)NC(=O)[C@H](CCC(=O)O)NC(=O)[C@H](CC(C)C)NC(=O)[C@H](CC(C)C)NC(=O)[C@H](C)NC(=O)[C@@H](NC(=O)[C@@H](NC(=O)[C@H](CCCCN)NC(=O)[C@H](CCC(N)=O)NC(=O)[C@H](CCC(=O)O)NC(=O)[C@H](Cc1c[nH]c2ccccc12)NC(=O)[C@H](CCC(=O)O)NC(=O)[C@H](CCC(N)=O)NC(=O)[C@@H](N)Cc1c[nH]c2ccccc12)[C@@H](C)CC)[C@@H](C)O)C(=O)N[C@@H](CCC(N)=O)C(=O)N[C@@H](CCC(N)=O)C(=O)N[C@@H](CCC(=O)O)C(=O)N[C@@H](CCCCN)C(=O)N[C@@H](CC(N)=O)C(=O)N[C@@H](CCC(=O)O)C(=O)N[C@@H](Cc1ccc(O)cc1)C(=O)N[C@@H](CCC(=O)O)C(=O)N[C@@H](CC(C)C)C(=O)N[C@@H](CCC(N)=O)C(=O)N[C@@H](CCCCN)C(=O)N[C@@H](CC(C)C)C(=O)N[C@@H](CC(=O)O)C(=O)N[C@@H](CCCCN)C(=O)N[C@@H](Cc1c[nH]c2ccccc12)C(=O)N[C@@H](C)C(=O)N[C@@H](CO)C(=O)N[C@@H](CC(C)C)C(=O)N[C@@H](Cc1c[nH]c2ccccc12)C(=O)N[C@@H](CCC(=O)O)C(=O)N[C@@H](Cc1c[nH]c2ccccc12)C(=O)N[C@@H](Cc1ccccc1)C(N)=O [Example T1249]
HIV-1; 50% reduction in infectious virus titer
  IC50: 0.003 µg/mL (≈ 0.601 nM)
HIV-1; 90% reduction in infectious titer
  IC90: 0.023 µg/mL (≈ 4.6 nM)
[1]; 1.2 mg/kg (SC)
  AUC(0-inf): 27600 ng·h/mL
  AUC(0-t): 27000 ng·h/mL
  Cmax: 6370 ng/mL
  Tmax: 1.09 h
  half-life: 2.02 h
[1]; 1.5 mg/kg (IV)
  AUC(0-inf): 47100 ng·h/mL
  AUC(0-t): 45600 ng·h/mL
  Cmax: 15700 ng/mL
  half-life: 2.46 h
[1]; 5.0 mg/kg (IV)
  AUC(0-inf): 120000 ng·h/mL
  AUC(0-t): 118000 ng·h/mL
  Cmax: 46300 ng/mL
  half-life: 1.86 h
[1]; 15 mg/kg (SC)
  AUC(0-inf): 110000 ng·h/mL
  AUC(0-t): 107000 ng·h/mL
  Cmax: 21500 ng/mL
  Tmax: 1.88 h
  half-life: 2 h
